In PMC6222780, “Synthesis, Spectroscopic Analysis and Assessment of the Biological Activity of New Hydrazine and Hydrazide Derivatives of 3-Formylchromone” (Molecules : A Journal of Synthetic Chemistry and Natural …, 2018):

How the values were obtained:
Assay type in all cases: cell-based
[1] = tested on: Staphylococcus aureus NCTC 4135; assay: Disc diffusion, inhibition of growth zones; conditions: S. aureus; discs at 100 or 200 µg/mL, 24 h at 37 °C
Procedure: (§1) Fifteen strains of microorganisms from different species were used. The growth inhibition zones were evaluated in two independent experiments (n = 2 in each of them), and the potential inhibitors of microbial growth are presented in Table 3. The hydrazine and hydrazide derivatives of 3-formylchromone constitute a class of potential antimicrobial agents and are worthy of further investigation. […] In case of N. meningitidis (result with *) the action of 9 was noted just for 100 µg/mL and the influence in concentration of 200 µg/mL was not observed.
(§2) The microbial reference strains representing different families of bacteria and fungi, pathogenic for man and animals, were used. The 15 strains were derived from international microbial collections held by the Department of Pharmaceutical Microbiology and Microbiological Diagnostics of the Medical University of Lodz: Candida albicans ATCC 10231, Enterococcus faecalis ATCC 29212, Klebsiella pneumoniae ATCC 700603, Pseudomonas aeruginosa NCTC 6749, Proteus vulgaris CCM 1799, Staphylococcus epidermidis ATCC 12228, Shigella flexneri ATCC 12022, Streptococcus pneumoniae ATCC 49619, Streptococcus pyogenes ATCC 19615, Corynebacterium jeikeium K411, Escherichia coli ATCC 25922, Staphylococcus aureus NCTC 4135, Streptococcus dysgalactiae subsp. equisimilis ATCC 12394, Neisseria meningitidis DSM 25942, Listeria monocytogenes PCM 2191.
(§3) The strains were stored at −80 °C, frozen in a 1:1 mixture of Brain Heart Infusion (BHI) broth and glycerol. The reference strains, depending on the growth requirements, were grown on a solid medium—nutrient agar, nutrient agar with 5% addition of lambs defibrinated blood or (in the case of Corynebacterium jeikeium) Triptic Soy Agar (TSA) with the addition of sheep blood, yeast extract and Tween-80. The susceptibility of the strains to chemical compounds was measured analogously to the adopted method of diffusion and disc preparation of antibiotics for compounds introduced into treatment. After receiving the pure culture of the reference strain, obtained from frozen samples and grown on the appropriate medium for growth requirements, suspensions of the tested strains were prepared in a physiological NaCl solution with a density of 0.5 on the McFarland scale. These suspensions were seeded with a cotton ball over the entire surface of the test medium. Discs impregnated with the test compound at a concentration of 100 or 200 µg/mL were then placed on it and incubated for 24 h at 37 °C.

[2] = tested on: Staphylococcus epidermidis ATCC 12228; assay: Disc diffusion, inhibition of growth zones; conditions: S. epidermidis; discs at 100 or 200 µg/mL, 24 h at 37 °C
Procedure: as §1, §2, §3

[3] = tested on: Streptococcus pyogenes ATCC 19615; assay: Disc diffusion, inhibition of growth zones; conditions: S. pyogenes; discs at 100 or 200 µg/mL, 24 h at 37 °C
Procedure: as §1, §2, §3

[4] = tested on: L929 cell line (mouse fibroblast cell line); assay: XTT assay, cell proliferation study
Procedure: (§4) Four independent experiments (n = 4 for each used concentration) were performed. […] This indicates good or very good (in the case of 1, 3, 5, 8, 11) selectivity of action. […] Due to the dual action of these compounds, it would be advisable to study their effect on stimulation of proliferation at concentrations below 0.01 μmol/L. This dual action may be desirable during therapy, because the dosage may affect the nature of the compounds.
The mouse fibroblast cell line L929 (Sigma-Aldrich) was grown in MEM (Minimum Essential Medium) (Biowest, Nuaillé, France) containing 10% of Fetal Bovine Serum (Biowest), 1 mmol/L sodium pyruvate (Biological Industries, Cromwell, CT, USA), 0.5 mmol/L non-essential amino acids (Sigma-Aldrich) and 100 units/mL penicillin with […] streptomycin (Biological Industries) in an incubator at 37 °C with 5% CO2. Cells were plated and grown to 80% confluence before the initiation of the assay.
(§5) The XTT assay was used to evaluate cell metabolic activity. […] The number of viable cells is correlated with the colour intensity determined by photometric measurements. XTT (Serva, Heidelberg, Germany) was dissolved in MEM without phenol red (PAN-Biotech, Aidenbach, Germany) or DMEM without phenol red (PAN-Biotech) at a concentration of 1 mg/mL. Phenazine metosulphate (PMS) (Serva) was dissolved in phosphate-buffered saline (PBS, 5 mmol/L). PMS solution was then added to the XTT solution at a concentration of 25 μM. Investigated compounds were dissolved in dimethyl sulfoxide (DMSO) to obtain stock solutions.
(§6) L929 and EA.hy926 cells were seeded into 96-well plates at a density of 1 × 10^4 cells per well. They were cultured for 24 h in the incubator (37 °C and 5% CO2). After that time, the medium was removed. Then the 100 µL of medium containing investigated compounds (in the range of concentration 0.01–1250 µmol/L) or only culture medium (blank control) were added. Cisplatin was used as a reference compound. Cells were further incubated for 24 h. At the third day, the old medium were removed and cells were washed with PBS. 100 µL of culture medium with the additional 50 µL of the XTT/PMS solution were added to each well. Plates were incubated in the dark for 3 h at 37 °C. Then, the plates were swayed and an aliquot of 100 µL from each well was transferred into the corresponding well of a new plate. Finally, the absorbance was measured by using the microplate reader (Synergy H1, BioTek, Winooski, VT, USA) at a wavelength of 450 nm. The cell viability was expressed as a percentage of the control values (blanks).

[5] = tested on: EA.hy926 cell line (the human umbilical vein, somatic cell hybrid); assay: XTT assay, cell proliferation study
Procedure: as §4
The EA.hy926 cell line (the human umbilical vein, somatic cell hybrid, American Type Culture Collection, Manassas, VA, USA) was used to evaluate the cytotoxicity of novel compounds. Cells were grown in Dulbecco’s Modified Eagle’s Medium (DMEM) which contains 10% of Fetal Bovine Serum (Biowest), 2 mmol/L glutamine (Sigma-Aldrich) and 100 units/mL penicillin with […] streptomycin (Biological Industries). Cells were plated and grown in an incubator at 37 °C with 5% CO2 to 80% confluence before the initiation of the assay.
as §5, §6

[6] = tested on: Fifteen strains of microorganisms from different species; assay: Initial antimicrobial screening by disc diffusion on the whole panel; conditions: 15 strains, discs at 100 or 200 µg/mL
Procedure: as §1, §2, §3

Complex of 4-Fluorobenzoic acid [1-(4-oxo-4H-chromen-3-yl)-meth-(E)-ylidene]-hydrazide with Cu (II) [Compound 11]
Inhibition of growth zones (lowest effective studied concentration) [1]: 100 µg/mL
Inhibition of growth zones (lowest effective studied concentration) [2]: 100 µg/mL
Inhibition of growth zones (lowest effective studied concentration) [3]: 200 µg/mL
IC50 ([4]; L929, XTT, 24 h incubation, 0.01–1250 µmol/L): 35 µM
The Range of Influence [%, Control = 100%] ([4]; L929, XTT, viability over 0.01–1250 µmol/L, control = 100%): 10.30–75.02%
IC50 value lower than ligand 5 ([4]; L929, complex 11 compared with ligand 5): 46.89%
The Range of Influence [%, Control = 100%] ([5]; EA.hy926, XTT, viability over 0.01–1250 µmol/L, control = 100%): 8.58–53.23%
IC50 value lower than ligand 5 ([5]; EA.hy926, complex 11 compared with ligand 5): 77.78%
Selectivity of action (IC50 EA.hy926 versus L929) ([5]; IC50 lower for EA.hy926 than for L929): very good
Inhibition of microbial growth (result in words) [6]: exhibit antimicrobial potential
